Experimental findings from ChEMBL document CHEMBL5465560, “Selectivity Literature for EUbOPEN Chemogenomic Library” (2024) are described below.

The target of experiment [1] is Receptor tyrosine-protein kinase erbB-4 (Homo sapiens, UniProt Q15303). Briefly: Selectivity interaction (ProQinase) EUB0000171b ERBB4.
Experiment [2] has as its target Serine/threonine-protein kinase MARK1 (Homo sapiens) (UniProt Q9P0L2). Briefly: Selectivity interaction (ProQinase) EUB0000171b MARK1.
Experiment [3] concerns the target Serine/threonine-protein kinase PAK 2 (Homo sapiens) (UniProt Q13177). Description: Selectivity interaction (KinomeScan (DiscoverX)) EUB0001079a PAK2. Conditions: at 1 µM.
The target in experiment [4] is Serine/threonine-protein kinase 35 (Homo sapiens) (UniProt Q8TDR2). Briefly: Selectivity interaction (KinomeScan (DiscoverX)) EUB0000695a STK35. To be noted: at 100 nM.
Experiment [5] has as its target Acetylcholinesterase (Homo sapiens) (UniProt P22303). Description: Selectivity interaction (Panel of non-epigenetic targets (kinases, GPCRs, ion channels, and transporters, Eurofins) ) EUB0000271b ACHE. Conditions: at 1 µM.
For the next experiment, the target named is Misshapen-like kinase 1 (Homo sapiens, UniProt Q8N4C8). Briefly: Selectivity interaction (Kinase panel (Z-LYTE Assay)) EUB0001632a MINK1. To be noted: at 10 µM.
The target of experiment [6] is Histone-lysine N-methyltransferase, H3 lysine-36 specific (Homo sapiens) (UniProt Q96L73). Description: Selectivity interaction (Methyltransferase screen (radiometric assays, panel of 8 PRMTs, 21 protein lysine methyltransferases, 3 DNA methyltransferases, and one RNA methyltransferase)) EUB0000272b NSD1. Conditions: at 1 µM.
Experiment [7] has as its target Serine/threonine-protein kinase Nek7 (Homo sapiens) (UniProt Q8TDX7). Description: Selectivity interaction (SelectScreen profiling (Invitrogen)) EUB0000607a NEK7. To be noted: at 2 µM.
Experiment [8] concerns the target Mitotic checkpoint serine/threonine-protein kinase BUB1 (Homo sapiens, UniProt O43683). Briefly: Selectivity interaction (KinomeScan (DiscoverX)) EUB0000607a BUB1. To be noted: at 10 µM.
In experiment [9] the target is Cyclin-dependent kinase 5 (Homo sapiens, UniProt Q00535). Briefly: Selectivity interaction (ActivX KiNativ screen (kinase selectivity in THP-1 cell lysates)) EUB0000639a CDK5. It counts as subcellular. Conditions: lysate, at 5 µM.
For experiment [10], the target named is T1, Serine/threonine-protein kinase STK11 (Homo sapiens) (UniProt Q15831).
T1 sequence (whole entry): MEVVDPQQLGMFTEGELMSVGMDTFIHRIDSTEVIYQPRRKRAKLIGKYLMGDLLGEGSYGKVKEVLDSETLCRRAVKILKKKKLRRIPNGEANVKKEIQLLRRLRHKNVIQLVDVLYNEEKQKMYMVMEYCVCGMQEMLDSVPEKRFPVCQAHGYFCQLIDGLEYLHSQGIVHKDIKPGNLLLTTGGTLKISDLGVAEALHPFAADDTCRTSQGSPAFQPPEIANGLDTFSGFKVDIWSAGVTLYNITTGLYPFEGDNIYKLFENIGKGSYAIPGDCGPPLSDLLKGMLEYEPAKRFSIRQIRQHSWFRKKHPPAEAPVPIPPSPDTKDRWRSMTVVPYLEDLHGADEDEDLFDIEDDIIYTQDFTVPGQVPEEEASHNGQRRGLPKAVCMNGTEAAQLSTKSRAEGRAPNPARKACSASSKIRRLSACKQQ
Description: Selectivity interaction (ActivX KiNativ screen (kinase selectivity in THP-1 cell lysates)) EUB0000639a STK11. The experiment is classed as subcellular. To be noted: lysate.

In experiment [11] the target is Fibroblast growth factor receptor 1 (Homo sapiens, UniProt P11362).
The target in experiment [12] is Cyclin-dependent kinase 14 (Homo sapiens) (UniProt O94921). Description: Selectivity interaction (KinomeScan (DiscoverX)) EUB0000229b CDK14. To be noted: at 10 µM.
For experiment [13], the target named is Calcium/calmodulin-dependent protein kinase type 1D (Homo sapiens) (UniProt Q8IU85). Description: Selectivity interaction (KinomeScan (DiscoverX)) EUB0001619a CAMK1D. To be noted: at 1 µM.
In experiment [14] the target is T2, Dual specificity protein kinase TTK (Homo sapiens) (UniProt P33981).
T2 sequence (whole entry): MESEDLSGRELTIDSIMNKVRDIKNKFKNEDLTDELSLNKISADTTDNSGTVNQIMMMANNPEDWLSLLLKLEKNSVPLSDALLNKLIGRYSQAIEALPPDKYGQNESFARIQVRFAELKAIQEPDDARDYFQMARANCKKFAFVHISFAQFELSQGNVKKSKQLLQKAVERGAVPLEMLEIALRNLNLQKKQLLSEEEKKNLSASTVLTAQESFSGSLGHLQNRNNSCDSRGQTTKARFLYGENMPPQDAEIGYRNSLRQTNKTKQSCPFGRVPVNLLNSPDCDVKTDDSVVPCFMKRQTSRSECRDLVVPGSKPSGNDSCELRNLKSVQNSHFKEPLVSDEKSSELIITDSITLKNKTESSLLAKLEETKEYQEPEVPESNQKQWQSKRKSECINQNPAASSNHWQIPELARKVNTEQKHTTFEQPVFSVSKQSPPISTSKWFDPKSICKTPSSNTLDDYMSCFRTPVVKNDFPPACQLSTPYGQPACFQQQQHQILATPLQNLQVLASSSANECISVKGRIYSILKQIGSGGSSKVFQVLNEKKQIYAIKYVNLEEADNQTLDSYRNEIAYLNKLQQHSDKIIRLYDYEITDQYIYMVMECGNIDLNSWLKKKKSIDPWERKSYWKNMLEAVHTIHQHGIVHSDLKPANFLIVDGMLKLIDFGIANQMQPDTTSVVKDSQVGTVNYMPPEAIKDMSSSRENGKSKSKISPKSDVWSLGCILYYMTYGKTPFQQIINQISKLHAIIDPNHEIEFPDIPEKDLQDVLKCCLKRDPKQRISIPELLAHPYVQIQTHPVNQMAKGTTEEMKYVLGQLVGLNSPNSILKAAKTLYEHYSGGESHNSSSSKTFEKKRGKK
Description: Selectivity interaction (KinomeScan (DiscoverX)) EUB0001619a TTK. Conditions: at 1 µM.

Experiment [15] addresses Serine/threonine-protein kinase 10 (Homo sapiens) (UniProt O94804). Description: Selectivity interaction (ActivX KiNativ screen (ex vivo kinase selectivity in human PBMCs)) EUB0001619a STK10. It counts as cell-based. To be noted: PBMC, at 1 µM.
Experiment [16] addresses Serine/threonine-protein kinase B-raf (Homo sapiens) (UniProt P15056). Description: Selectivity interaction (ActivX KiNativ screen (ex vivo kinase selectivity in human PBMCs)) EUB0001619a BRAF. It counts as cell-based. Conditions: PBMC, at 1 µM.
Experiment [17] addresses Tyrosine-protein kinase Lyn (Homo sapiens, UniProt P07948). Description: Selectivity interaction (KinomeScan (DiscoverX)) EUB0001619a LYN. To be noted: at 1 µM.
Experiment [18] has as its target TRAF2 and NCK-interacting protein kinase (Homo sapiens) (UniProt Q9UKE5). Briefly: Selectivity interaction (KinomeScan (DiscoverX)) EUB0000618a TNIK. Conditions: at 10 µM.

A value given as a limit tells only on which side of the number the result lay.

Sequence of Serine/threonine-protein kinase MARK1 (Homo sapiens) (Q9P0L2 whole entry, looked up): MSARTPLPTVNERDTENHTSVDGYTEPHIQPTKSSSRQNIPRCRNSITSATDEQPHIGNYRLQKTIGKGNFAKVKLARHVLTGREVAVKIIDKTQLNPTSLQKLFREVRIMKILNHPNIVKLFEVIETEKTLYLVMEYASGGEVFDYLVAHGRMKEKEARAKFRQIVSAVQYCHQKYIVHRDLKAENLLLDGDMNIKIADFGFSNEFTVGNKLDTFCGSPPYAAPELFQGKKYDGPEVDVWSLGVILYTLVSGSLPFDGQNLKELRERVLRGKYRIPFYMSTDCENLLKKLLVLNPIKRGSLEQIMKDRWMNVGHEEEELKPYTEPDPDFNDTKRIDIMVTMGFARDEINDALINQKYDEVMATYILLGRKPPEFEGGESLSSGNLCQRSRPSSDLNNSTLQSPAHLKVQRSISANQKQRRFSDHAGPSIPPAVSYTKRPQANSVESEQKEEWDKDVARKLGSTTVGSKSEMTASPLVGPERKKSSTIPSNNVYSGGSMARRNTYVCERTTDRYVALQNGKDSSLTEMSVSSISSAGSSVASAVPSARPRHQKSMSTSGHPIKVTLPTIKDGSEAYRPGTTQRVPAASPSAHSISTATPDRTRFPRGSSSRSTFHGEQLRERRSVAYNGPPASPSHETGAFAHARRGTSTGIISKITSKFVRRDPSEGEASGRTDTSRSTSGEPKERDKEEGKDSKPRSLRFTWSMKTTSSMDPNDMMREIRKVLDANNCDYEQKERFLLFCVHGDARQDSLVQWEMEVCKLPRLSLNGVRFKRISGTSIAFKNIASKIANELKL
Sequence of Receptor tyrosine-protein kinase erbB-4 (Q15303 whole entry): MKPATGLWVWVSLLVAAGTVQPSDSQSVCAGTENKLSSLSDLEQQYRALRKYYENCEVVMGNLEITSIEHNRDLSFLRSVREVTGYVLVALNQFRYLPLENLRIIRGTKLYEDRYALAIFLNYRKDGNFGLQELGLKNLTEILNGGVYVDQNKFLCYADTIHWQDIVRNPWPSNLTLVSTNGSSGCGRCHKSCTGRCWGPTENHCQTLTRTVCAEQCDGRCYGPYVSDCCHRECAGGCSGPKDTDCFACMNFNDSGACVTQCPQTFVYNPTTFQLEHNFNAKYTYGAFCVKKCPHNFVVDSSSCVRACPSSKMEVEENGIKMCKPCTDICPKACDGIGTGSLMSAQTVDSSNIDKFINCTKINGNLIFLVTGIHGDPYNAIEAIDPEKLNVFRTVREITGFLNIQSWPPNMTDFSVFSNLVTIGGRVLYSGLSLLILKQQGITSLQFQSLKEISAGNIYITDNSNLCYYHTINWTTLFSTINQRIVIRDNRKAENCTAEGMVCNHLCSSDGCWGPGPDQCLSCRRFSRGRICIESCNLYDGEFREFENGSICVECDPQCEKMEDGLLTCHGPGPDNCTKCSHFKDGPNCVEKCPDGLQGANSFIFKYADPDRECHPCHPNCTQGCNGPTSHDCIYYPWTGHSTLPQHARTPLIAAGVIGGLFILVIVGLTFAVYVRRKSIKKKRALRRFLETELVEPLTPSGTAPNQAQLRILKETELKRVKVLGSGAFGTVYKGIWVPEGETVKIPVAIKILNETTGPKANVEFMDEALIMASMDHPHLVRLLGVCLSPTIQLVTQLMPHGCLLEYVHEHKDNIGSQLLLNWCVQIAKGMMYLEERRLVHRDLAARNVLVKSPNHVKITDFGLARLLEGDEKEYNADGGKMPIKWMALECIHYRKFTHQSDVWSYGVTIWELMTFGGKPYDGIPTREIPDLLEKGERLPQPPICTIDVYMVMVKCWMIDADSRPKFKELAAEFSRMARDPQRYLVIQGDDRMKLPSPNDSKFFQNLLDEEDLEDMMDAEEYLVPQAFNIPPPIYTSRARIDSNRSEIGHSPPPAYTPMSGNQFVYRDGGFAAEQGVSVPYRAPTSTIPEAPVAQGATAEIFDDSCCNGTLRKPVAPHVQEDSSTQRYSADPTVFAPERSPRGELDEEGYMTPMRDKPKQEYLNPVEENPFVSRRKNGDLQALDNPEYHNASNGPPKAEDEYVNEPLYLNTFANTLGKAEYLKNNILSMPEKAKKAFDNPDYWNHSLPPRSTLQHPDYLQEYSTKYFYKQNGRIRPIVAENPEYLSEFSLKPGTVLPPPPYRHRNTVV
Sequence of Cyclin-dependent kinase 5 (Q00535 whole entry, looked up): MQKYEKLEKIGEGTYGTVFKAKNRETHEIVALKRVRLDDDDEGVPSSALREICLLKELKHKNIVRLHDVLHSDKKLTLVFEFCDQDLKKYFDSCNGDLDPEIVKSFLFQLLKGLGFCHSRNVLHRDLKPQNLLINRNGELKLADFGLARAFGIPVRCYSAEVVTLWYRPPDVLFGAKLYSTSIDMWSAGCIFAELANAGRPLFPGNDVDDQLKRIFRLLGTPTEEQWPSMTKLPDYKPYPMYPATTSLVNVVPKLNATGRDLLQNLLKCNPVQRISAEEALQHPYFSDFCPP
Sequence of Serine/threonine-protein kinase 10 (Homo sapiens) (O94804 whole entry, looked up): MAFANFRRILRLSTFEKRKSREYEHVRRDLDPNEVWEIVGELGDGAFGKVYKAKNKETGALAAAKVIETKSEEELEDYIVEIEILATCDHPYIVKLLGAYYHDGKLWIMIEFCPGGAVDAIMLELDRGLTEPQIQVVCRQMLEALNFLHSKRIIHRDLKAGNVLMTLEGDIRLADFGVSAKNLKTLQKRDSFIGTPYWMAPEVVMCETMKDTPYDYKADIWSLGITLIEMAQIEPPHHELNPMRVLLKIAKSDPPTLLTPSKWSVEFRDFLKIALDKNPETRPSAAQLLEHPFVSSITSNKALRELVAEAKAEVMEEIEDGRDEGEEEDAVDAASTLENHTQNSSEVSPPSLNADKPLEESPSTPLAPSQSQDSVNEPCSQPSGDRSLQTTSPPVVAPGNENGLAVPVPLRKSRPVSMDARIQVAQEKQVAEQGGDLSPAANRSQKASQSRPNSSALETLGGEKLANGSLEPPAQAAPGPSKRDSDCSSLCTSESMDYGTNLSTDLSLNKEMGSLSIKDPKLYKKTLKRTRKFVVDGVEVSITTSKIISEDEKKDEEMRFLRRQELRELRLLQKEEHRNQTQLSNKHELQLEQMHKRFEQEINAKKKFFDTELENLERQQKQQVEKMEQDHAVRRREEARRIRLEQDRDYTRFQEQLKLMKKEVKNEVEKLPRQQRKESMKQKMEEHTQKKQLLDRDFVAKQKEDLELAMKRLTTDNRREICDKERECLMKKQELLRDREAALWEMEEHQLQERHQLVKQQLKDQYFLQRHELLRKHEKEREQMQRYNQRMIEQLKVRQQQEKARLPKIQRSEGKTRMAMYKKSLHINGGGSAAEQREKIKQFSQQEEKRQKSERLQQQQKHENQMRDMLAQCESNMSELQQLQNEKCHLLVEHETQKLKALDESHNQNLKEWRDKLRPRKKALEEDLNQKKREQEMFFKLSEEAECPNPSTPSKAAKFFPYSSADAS
Sequence of Fibroblast growth factor receptor 1 (P11362 whole entry): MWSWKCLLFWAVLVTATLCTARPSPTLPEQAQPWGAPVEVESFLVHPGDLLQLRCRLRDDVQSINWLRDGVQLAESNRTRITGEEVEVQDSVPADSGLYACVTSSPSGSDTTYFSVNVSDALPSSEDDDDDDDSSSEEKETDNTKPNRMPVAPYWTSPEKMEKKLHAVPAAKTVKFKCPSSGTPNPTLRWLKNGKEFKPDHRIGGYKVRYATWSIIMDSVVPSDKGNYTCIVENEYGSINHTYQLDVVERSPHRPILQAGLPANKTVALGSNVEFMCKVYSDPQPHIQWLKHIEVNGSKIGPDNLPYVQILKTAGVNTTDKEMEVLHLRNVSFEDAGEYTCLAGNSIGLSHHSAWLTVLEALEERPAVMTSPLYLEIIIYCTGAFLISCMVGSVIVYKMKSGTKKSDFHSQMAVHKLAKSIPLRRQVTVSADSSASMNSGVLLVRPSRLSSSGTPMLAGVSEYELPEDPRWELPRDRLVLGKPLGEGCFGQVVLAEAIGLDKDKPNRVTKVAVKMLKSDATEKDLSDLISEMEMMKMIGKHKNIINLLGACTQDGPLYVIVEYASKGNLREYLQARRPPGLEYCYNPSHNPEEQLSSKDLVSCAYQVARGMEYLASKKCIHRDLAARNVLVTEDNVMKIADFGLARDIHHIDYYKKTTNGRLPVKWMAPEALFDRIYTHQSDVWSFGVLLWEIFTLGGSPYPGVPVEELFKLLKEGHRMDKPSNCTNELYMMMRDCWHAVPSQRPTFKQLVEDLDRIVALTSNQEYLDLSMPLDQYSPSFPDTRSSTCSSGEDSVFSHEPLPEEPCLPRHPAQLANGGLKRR
Sequence of Acetylcholinesterase (Homo sapiens) (P22303 whole entry): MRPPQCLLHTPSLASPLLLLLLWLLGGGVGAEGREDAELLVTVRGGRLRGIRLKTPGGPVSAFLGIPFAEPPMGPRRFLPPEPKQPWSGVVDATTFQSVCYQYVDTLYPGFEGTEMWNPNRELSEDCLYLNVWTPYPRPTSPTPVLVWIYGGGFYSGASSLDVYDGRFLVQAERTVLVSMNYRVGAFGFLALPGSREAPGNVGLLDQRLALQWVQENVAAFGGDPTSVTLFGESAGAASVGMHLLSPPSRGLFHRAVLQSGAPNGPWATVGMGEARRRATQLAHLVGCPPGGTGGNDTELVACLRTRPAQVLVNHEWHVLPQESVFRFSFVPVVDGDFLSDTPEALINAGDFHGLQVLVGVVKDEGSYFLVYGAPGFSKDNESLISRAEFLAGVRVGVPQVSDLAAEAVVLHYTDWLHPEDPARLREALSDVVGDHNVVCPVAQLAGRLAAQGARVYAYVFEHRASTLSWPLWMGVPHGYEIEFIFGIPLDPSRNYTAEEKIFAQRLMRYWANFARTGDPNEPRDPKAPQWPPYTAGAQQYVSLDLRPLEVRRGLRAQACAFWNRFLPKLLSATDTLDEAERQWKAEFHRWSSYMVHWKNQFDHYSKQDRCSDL

`C=CC(=O)Nc1cccc(C(=O)Nc2ccc(Nc3cc(-c4[nH]c(SC)nc4C)ccn3)cc2)c1`: the % of control in [1] (at 1 µM) turned out to be 93%; in experiment [1] (at 5 µM) it was 90%; in [2] (at 1 µM), 100%; in [2] (at 5 µM), 88%.
For the molecule `Nc1cnc(N2CCc3cc(S(=O)(=O)Nc4c(F)cc(Cl)cc4F)cc(N4CCCC4=O)c32)nc1` [TP-020n], the % of control in [3] came out at 78%.
As for `Cc1cc(F)c(C(=O)Nc2cccc(-c3nncn3C(C)C)n2)cc1-n1cnc(C2CC2)c1`, in [4], the % of control stood at 100%.
In the case of `Cc1cc(C)cc([C@@H]2c3cc(C)ccc3NC(=O)CN2C(=O)c2ccc(Br)s2)c1`, the % of inhibition in experiment [5] stood at 7%.
For the molecule `Cn1cc(-n2cnc3c(NCc4nc5cc(Cl)c(Cl)cc5[nH]4)nc(N4CCOCC4)nc32)cn1`, the % of control on Misshapen-like kinase 1 is -3.28%.
As for `Cc1cc(C)cc([C@H]2c3cc(C)ccc3NC(=O)CN2C(=O)c2ccc(Br)s2)c1`, the % of activity in [6] is 97.7%.
Turning to `CNC(=O)Nc1ccc(-c2nc(N3CC4CCC(C3)O4)c3cnn(C4CCC5(CC4)OCCO5)c3n2)cc1`, in experiment [7], the % of inhibition is -3%. Also, in experiment [8], the % of control was found to be 52%.
In the case of `CC[C@@H]1[C@H](F)C(=O)N[C@@H]1COc1nccc2cc(C(N)=O)c(OC)cc12` [ZIMLOVISERTIB], the % of inhibition in [9] was -23.1%; in [10] (at 0.01 µM), -0.5%; in [10] (at 0.04 µM), 12.2%; in [10] (at 0.2 µM), 34.8%; in experiment [10] (at 1 µM), 58.5%; in experiment [10] (at 5 µM), 85.1%.
With `CCc1cccc(CC)c1NC(=O)c1nn(C)c2c1CCc1cnc(Nc3ccc(C(=O)NC4CCN(C)CC4)cc3OC(F)(F)F)nc1-2`, in experiment [11], the IC50 was > 10 µM.
`COc1cc(N(C)c2ccnc3ccc(C(F)(F)F)cc23)cc(OC)c1OC` yielded a % binding in experiment [12] of 92%.
Consider `N#Cc1cccc(-c2c[nH]c3ncnc(N4CCOCC4)c23)c1`, for which the figures for the % of control in [13], in experiment [14] and in experiment [17] were 88%, 92% and 91%, respectively. Besides, the % of inhibition in experiment [15] was 77%; in experiment [16], -1%.
On to `O[C@H]1CC[C@H](Nc2ncc3nc(Nc4c(F)cc(F)cc4F)n([C@H]4CCOC4)c3n2)CC1`, for which the % of control in [18] came out at 83%.

What is called IC50 is the concentration that gives 50% inhibition. Low readings indicate greater potency in that assay, high ones weaker potency in that assay.
